SMILES strings stand for the structures. pIC50: −log10 of the molar value.

As usually defined, the GI50 is the concentration at which growth is held to half of that of the control. A higher GI50 goes with lower sensitivity of the cells. By pIC50 is commonly meant −log10 of the IC50, conventionally taken in molar units. Low values mean a large IC50, high ones a small IC50.

One assay deals with MV-4-11. The experiment in a line: Cell growth inhibition assay (CellTiter-Glo), MV-4-11. It counts as cell-based, human. The settings on record: MV-4-11 cells, 4 days; for GI50: Homo sapiens, MV4-11, 96 h, half-maximal growth inhibition; for MV-4-11 TGI: total growth inhibition. The method, boiled down: (§1)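 Cells were treated with 3-fold serial dilutions of compound starting at 10 μM for 4 days at 37 °C and 5% CO2, and viability was then read as ATP by CellTiter-Glo luminescence. Signals were background- and day 0-corrected against 0.1% DMSO vehicle (100%) and medium (−100%). IC50 and TGI came from four-parameter fits.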
Background: Cellular ATP, detected with luciferase, serves as a proxy for viable cell number.

For the next assay, the target named is BRD2 (Homo sapiens (Human), UniProt P25440). Nature of the assay: TR-FRET in-vitro binding assay for BRD2. The settings on record: 45 nM His-Brd2(60-472), acetyl-histone H4 (AcK 5, 8, 12, 16) peptide. Put shortly:
(§2)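 Binding is detected by TR-FRET following incubation for 35 minutes at 30° C.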
On the technique in general: Time-resolved FRET reads energy transfer from a long-lived donor to a nearby acceptor.

The next assay concerns the target BRD4 (Homo sapiens (Human), UniProt O60885). The experiment in a line: TR-FRET in-vitro binding assay for BRD4. As to conditions: 45 nM His-Brd4(44-477), acetyl-histone H4 (AcK 5, 8, 12, 16) peptide. Put shortly: as §2
A further assay deals with BRD3 (Homo sapiens (Human), UniProt Q15059). Nature of the assay: TR-FRET in-vitro binding assay for BRD3. The settings on record: 45 nM His-Brd3(20-477), acetyl-histone H4 (AcK 5, 8, 12, 16) peptide. The method, boiled down:
as §2

In another assay the test system is K-562. Nature of the assay: Cell growth inhibition assay (CellTiter-Glo), K-562. Format: cell-based, human. The settings on record: K-562 cells, 4 days; for GI50: Homo sapiens, K562, 96 h, half-maximal growth inhibition; for K-562 TGI: total growth inhibition. Put shortly:
as §1

A further assay deals with CREBBP (Homo sapiens (Human), UniProt Q92793). Nature of the assay: AlphaScreen in-vitro binding assay for CREBBP. As to conditions: 324 nM His-CREBBP (1081-1197), acetyl-histone H4 (AcK 5, 8, 12) peptide. Put shortly: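 IC50 values were derived by non-linear regression of percent inhibition across 8 compound concentrations. Protein was His-tagged CREBBP bromodomain (1081-1197), peptide acetyl-histone H4 (AcK 5, 8, 12), in HEPES pH 7.5 buffer. Read-out was AlphaScreen with Ni-chelate acceptor and streptavidin donor beads, 35 min at 30° C then 60 min at RT.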
CREBBP, sequence (Q92793 1081-1197): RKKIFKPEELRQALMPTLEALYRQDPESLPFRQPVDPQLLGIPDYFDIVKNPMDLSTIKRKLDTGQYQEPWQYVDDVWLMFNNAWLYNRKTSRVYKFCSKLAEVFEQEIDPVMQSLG
For orientation: Alpha assays give light when donor and acceptor beads are brought close together.

In the next assay the test system is THP-1. The experiment in a line: Cell growth inhibition assay (CellTiter-Glo), THP-1. Format: cell-based, human. As to conditions: THP-1 cells, 4 days; for GI50: Homo sapiens, 96 h, half-maximal growth inhibition; for THP-1 TGI: total growth inhibition. The method, boiled down:
as §1

BRD2, sequence (P25440 60-472): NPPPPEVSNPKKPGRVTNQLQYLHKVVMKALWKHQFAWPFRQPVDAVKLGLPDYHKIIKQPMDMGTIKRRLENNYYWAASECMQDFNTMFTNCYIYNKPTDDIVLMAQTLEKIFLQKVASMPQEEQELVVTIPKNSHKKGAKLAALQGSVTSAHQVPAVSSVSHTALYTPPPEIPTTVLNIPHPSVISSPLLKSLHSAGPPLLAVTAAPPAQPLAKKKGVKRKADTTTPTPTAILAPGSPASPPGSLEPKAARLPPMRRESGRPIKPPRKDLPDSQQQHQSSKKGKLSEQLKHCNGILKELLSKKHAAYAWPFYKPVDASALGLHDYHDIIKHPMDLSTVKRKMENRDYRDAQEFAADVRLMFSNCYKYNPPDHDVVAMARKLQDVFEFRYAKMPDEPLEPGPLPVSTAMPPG
BRD3, sequence (Q15059 20-477): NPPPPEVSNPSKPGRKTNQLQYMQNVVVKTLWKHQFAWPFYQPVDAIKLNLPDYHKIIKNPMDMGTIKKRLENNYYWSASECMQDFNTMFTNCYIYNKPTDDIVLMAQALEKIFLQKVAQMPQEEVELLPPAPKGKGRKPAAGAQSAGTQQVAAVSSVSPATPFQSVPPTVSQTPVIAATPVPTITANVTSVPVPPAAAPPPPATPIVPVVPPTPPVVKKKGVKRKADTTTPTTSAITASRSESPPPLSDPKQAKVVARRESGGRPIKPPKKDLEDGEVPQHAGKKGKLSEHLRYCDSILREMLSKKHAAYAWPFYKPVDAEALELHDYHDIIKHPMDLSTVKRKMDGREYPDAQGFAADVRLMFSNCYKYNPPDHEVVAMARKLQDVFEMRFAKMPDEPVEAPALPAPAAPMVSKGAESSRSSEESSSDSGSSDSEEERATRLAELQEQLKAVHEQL

With `Cc1cc(N2C(=O)c3ccn(C)c3C2c2ccc(Cl)c(F)c2)cn(C)c1=O` (stereo not shown) [Example 80, 6-(4-chloro-3-fluorophenyl)-5-(1,5-dimethyl-6-oxo-1,6-dihydropyridin-3-yl)-1-methyl-5,6-dihydropyrrolo[3,4-b]pyrrol-4(1H)-one], the concentration for 50% growth inhibition (GI50) in the assay on MV-4-11 is 0.148 µM; with K-562, 0.455 µM; in the assay on THP-1, 0.146 µM. Further, the “MV-4-11 TGI” value in the assay on MV-4-11 turned out to be 0.267 µM. Besides, the pIC50 at BRD2 was 6.54; on BRD4, 6.81; on BRD3, 6.83; at CREBBP, 5.82. In addition, in the assay with K-562, the “K-562 TGI” value is more than 10 µM. The “THP-1 TGI” value in the assay with THP-1 was 0.3695 µM.
`Cc1ccc(C2c3c(ccn3C)C(=O)N2c2cc(C)c(=O)n(C)c2)cc1` (stereo not shown) [Example 81, 5-(1,5-dimethyl-6-oxo-1,6-dihydropyridin-3-yl)-1-methyl-6-(p-tolyl)-5,6-dihydropyrrolo[3,4-b]pyrrol-4(1H)-one]: the 50% growth inhibitory concentration (GI50) amounted to 0.0798 µM in the assay on MV-4-11, 0.721 µM in the assay with K-562 and 0.149 µM in the assay on THP-1. In addition, the “MV-4-11 TGI” value in the assay with MV-4-11 was 0.121 µM. The negative-log IC50 (pIC50) is 6.90 on BRD2, 6.88 at BRD4, 7.09 on BRD3 and 5.35 on CREBBP. In addition, the “K-562 TGI” value with K-562 is more than 10 µM. In the assay on THP-1, the “THP-1 TGI” value was determined as 0.3 µM.
`Cc1cc(N2C(=O)c3ccn(C)c3C2c2ccc(F)cc2)cn(C)c1=O` (stereo not shown) [Example 82, 5-(1,5-dimethyl-6-oxo-1,6-dihydropyridin-3-yl)-6-(4-fluorophenyl)-1-methyl-5,6-dihydropyrrolo[3,4-b]pyrrol-4(1H)-one]: the concentration for 50% growth inhibition (GI50) in the assay on MV-4-11 stood at 0.104 µM; with K-562 it was 0.618 µM; in the assay on THP-1 it was 0.206 µM. Besides, the “MV-4-11 TGI” value with MV-4-11 came out at 0.189 µM. Also, the pIC50 at BRD2 is 6.64; at BRD4, 6.71; on BRD3 it was 6.85; at CREBBP it was 5.33. Moreover, in the assay with K-562, the “K-562 TGI” value is more than 10 µM. In the assay with THP-1, the “THP-1 TGI” value worked out at 0.397 µM.
As for `Cc1cc(N2C(=O)c3ccn(C)c3C2c2ccc(C#N)cc2)cn(C)c1=O` (stereo not shown) [Example 83, 4-(5-(1,5-dimethyl-6-oxo-1,6-dihydropyridin-3-yl)-1-methyl-4-oxo-1,4,5,6-tetrahydropyrrolo[3,4-b]pyrrol-6-yl)benzonitrile], the GI50 in the assay with MV-4-11 worked out at 0.326 µM; in the assay on K-562, 1.13 µM; in the assay with THP-1, 0.634 µM. In the assay on MV-4-11, the “MV-4-11 TGI” value came out at 0.636 µM. For the same compound, the pIC50 on BRD2 is 6.56; on BRD4, 6.49; at BRD3 it was 6.70; at CREBBP it was 5.15. In addition, the “K-562 TGI” value in the assay on K-562 was more than 10 µM. For the same compound, the “THP-1 TGI” value in the assay on THP-1 amounted to 1.27 µM.
`COc1ccc(C2c3c(ccn3C)C(=O)N2c2cc(C)c(=O)n(C)c2)cc1` (stereo not shown) [Example 84, 5-(1,5-dimethyl-6-oxo-1,6-dihydropyridin-3-yl)-6-(4-methoxyphenyl)-1-methyl-5,6-dihydropyrrolo[3,4-b]pyrrol-4(1H)-one]: the GI50 was found to be 0.158 µM in the assay on MV-4-11, 0.548 µM in the assay with K-562 and 0.167 µM with THP-1. In the assay on MV-4-11, the “MV-4-11 TGI” value turned out to be 0.3385 µM. Besides, the pIC50 on BRD2 is 6.71; on BRD4, 6.64; on BRD3 it was 6.79; on CREBBP, 5.33. Also, the “K-562 TGI” value in the assay with K-562 was more than 10 µM. Also, the “THP-1 TGI” value in the assay on THP-1 was 0.4195 µM.
As to `Cn1ccc2c1C(c1ccccc1)N(c1cc(Cl)c(=O)n(C)c1)C2=O` (stereo not shown) [Example 86, 5-(5-chloro-1-methyl-6-oxo-1,6-dihydropyridin-3-yl)-1-methyl-6-phenyl-5,6-dihydropyrrolo[3,4-b]pyrrol-4(1H)-one], the GI50 with MV-4-11 stood at 0.338 µM; with K-562 it was 1.1 µM; with THP-1 it was 0.392 µM. Further, the “MV-4-11 TGI” value in the assay on MV-4-11 amounted to 0.642 µM. Besides, the negative logarithm of the IC50 (pIC50) is 6.36 at BRD2, 6.36 at BRD4, 6.56 at BRD3 and 4.74 on CREBBP. Besides, the “K-562 TGI” value in the assay on K-562 was more than 10 µM. For the same compound, the “THP-1 TGI” value in the assay on THP-1 came to 0.7955 µM.
For `Cc1ccc(C2c3c(ccn3C)C(=O)N2c2cc(Cl)c(=O)n(C)c2)cc1` (stereo not shown) [Example 87, 5-(5-chloro-1-methyl-6-oxo-1,6-dihydropyridin-3-yl)-1-methyl-6-(p-tolyl)-5,6-dihydropyrrolo[3,4-b]pyrrol-4(1H)-one], the GI50 in the assay on MV-4-11 is 0.0753 µM; in the assay on K-562, 0.266 µM; in the assay on THP-1 it was 0.0839 µM. In addition, the “MV-4-11 TGI” value in the assay on MV-4-11 was determined as 0.151 µM. For the same compound, the pIC50 is 6.97 at BRD2, 6.92 on BRD4, 7.12 on BRD3 and 5.39 at CREBBP. The “K-562 TGI” value in the assay with K-562 was more than 10 µM. Also, in the assay on THP-1, the “THP-1 TGI” value is 0.255 µM.
On to `Cn1ccc2c1C(c1ccc(F)cc1)N(c1cc(Cl)c(=O)n(C)c1)C2=O` (stereo not shown) [Example 88, 5-(5-chloro-1-methyl-6-oxo-1,6-dihydropyridin-3-yl)-6-(4-fluorophenyl)-1-methyl-5,6-dihydropyrrolo[3,4-b]pyrrol-4(1H)-one], for which the 50% growth inhibitory concentration (GI50) came out at 0.21 µM with MV-4-11, 0.715 µM with K-562 and 0.321 µM in the assay on THP-1. In the assay with MV-4-11, the “MV-4-11 TGI” value was 0.359 µM. Also, the pIC50 on BRD2 was 6.54; at BRD4 it was 6.48; on BRD3, 6.72; on CREBBP, 5.12. Further, the “K-562 TGI” value with K-562 was more than 10 µM. Moreover, the “THP-1 TGI” value with THP-1 was found to be 0.683 µM.
As to `Cn1ccc2c1C(c1ccc(C#N)cc1)N(c1cc(Cl)c(=O)n(C)c1)C2=O` (stereo not shown) [Example 89, 4-(5-(5-chloro-1-methyl-6-oxo-1,6-dihydropyridin-3-yl)-1-methyl-4-oxo-1,4,5,6-tetrahydropyrrolo[3,4-b]pyrrol-6-yl)benzonitrile], the GI50 with MV-4-11 came out at 0.403 µM; in the assay with K-562, 1.91 µM; in the assay on THP-1, 0.598 µM. Besides, in the assay on MV-4-11, the “MV-4-11 TGI” value is 0.785 µM. In addition, the pIC50 is 6.64 at BRD2, 6.45 on BRD4, 6.68 on BRD3 and 4.97 on CREBBP. In the assay on K-562, the “K-562 TGI” value is more than 10 µM. Also, in the assay on THP-1, the “THP-1 TGI” value was determined as 2.015 µM.
Turning to `Cn1ccc2c1C(c1ccc(Cl)c(F)c1)N(c1cc(Cl)c(=O)n(C)c1)C2=O` (stereo not shown) [Example 90, 5-(5-chloro-1-methyl-6-oxo-1,6-dihydropyridin-3-yl)-6-(4-chloro-3-fluorophenyl)-1-methyl-5,6-dihydropyrrolo[3,4-b]pyrrol-4(1H)-one], the concentration for 50% growth inhibition (GI50) in the assay with MV-4-11 was determined as 0.222 µM; in the assay with K-562, 0.618 µM; with THP-1 it was 0.218 µM. In addition, the “MV-4-11 TGI” value with MV-4-11 worked out at 0.4075 µM. For the same compound, the pIC50 on BRD2 is 6.58; at BRD4, 6.57; on BRD3, 6.71; at CREBBP it was 5.84. Besides, the “K-562 TGI” value with K-562 is more than 10 µM. The “THP-1 TGI” value in the assay on THP-1 came to 0.4465 µM.

(Values after US9550796B2, “Pyrrolopyrrolone derivatives and their use as BET inhibitors” (NOVARTIS AG, priority 2013, dated 2017).)
